Laboratory results: patent publication US8445674B2, “Heterocyclyl compounds” (Hoffmann-La Roche Inc, priority 2009, dated 2013)

Molecular target: T1, human chemokine receptor 2 isoform B (Homo sapiens, UniProt P41597)
T1 construct: host or cells: CHOK1-CCR2B-A5 cells (CHO-K1)
T1 sequence (P41597 1-360 isoform P41597-2): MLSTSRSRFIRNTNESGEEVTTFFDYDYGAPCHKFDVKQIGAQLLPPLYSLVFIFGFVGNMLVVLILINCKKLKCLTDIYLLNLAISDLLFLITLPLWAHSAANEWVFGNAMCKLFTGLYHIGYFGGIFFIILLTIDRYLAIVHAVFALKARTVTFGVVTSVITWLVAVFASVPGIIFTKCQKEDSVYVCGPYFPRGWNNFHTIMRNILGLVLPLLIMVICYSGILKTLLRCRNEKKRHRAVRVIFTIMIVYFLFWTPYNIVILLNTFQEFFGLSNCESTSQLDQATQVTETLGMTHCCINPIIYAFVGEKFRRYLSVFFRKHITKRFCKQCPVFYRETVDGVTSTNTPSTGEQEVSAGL
Test: Calcium mobilization assay (FLIPR, antagonist activity against MCP-1)
Format: cell-based
Conditions: Ca mobilisation assay, CHOK1-CCR2B-A5 cells, inhibition of calcium increase induced by 20 nM MCP-1
Summary of the method: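 CHOK1 cells stably overexpressing human CCR2B, loaded with 4 μM Fluo-4 for 2 h at 30° C, compounds added and agonist signal read by FLIPR for 80 s. After 20-30 min at 30° C, 20 nM MCP-1 was added and fluorescence read again. IC50 is 50% inhibition of specific calcium increase (max minus basal).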

| Compound | IC50 |
| --- | --- |
| CC1(O)CCCN(C(=O)CCN2CCN(C(=O)/C=C/c3ccc(Cl)c(Cl)c3)CCC2=O)C1 (racemic) [Example 74, (rac)-1-[(E)-3-(3,4-Dichloro-phenyl)-acryloyl]-4-[3-(3-hydroxy-3-methyl-piperidin-1-yl)-3-oxo-propyl]-[1,4]diazepan-5-one] | 1540 nM |
| COC(=O)[C@H](CCC(=O)N1CCC2(CC2)[C@H](O)C1)N1CCN(C(=O)Nc2ccc(C(F)(F)F)c(C(F)(F)F)c2)[C@@H](C)C1=O [Example 143, (S)-2-[(S)-4-(3,4-Bis-trifluoromethyl-phenylcarbamoyl)-3-methyl-2-oxo-piperazin-1-yl]-5-((S)-4-hydroxy-6-aza-spiro[2.5]oct-6-yl)-5-oxo-pentanoic acid methyl ester] | 337 nM |
| CN1CCN(C(=O)CCN2CCN(C(=O)/C=C/c3ccc(Cl)c(Cl)c3)CCC2=O)CC1=O [Example 80, 1-[(E)-3-(3,4-Dichloro-phenyl)-acryloyl]-4-[3-(4-methyl-3-oxo-piperazin-1-yl)-3-oxo-propyl]-[1,4]diazepan-5-one] | 3250 nM |
| C[C@H]1C(=O)N([C@H](CO)CCC(=O)N2CCC3(CC3)[C@H](O)C2)CCN1C(=O)Nc1ccc(C(F)(F)F)c(Cl)c1 [Example 53, (S)-4-[(S)-4-((S)-4-Hydroxy-6-aza-spiro[2.5]oct-6-yl)-1-hydroxymethyl-4-oxo-butyl]-2-methyl-3-oxo-piperazine-1-carboxylic acid (3-chloro-4-trifluoromethyl-phenyl)-amide] | 4.3 nM |
| O=C(/C=C/c1ccc(Cl)c(Cl)c1)N1CCC(=O)N(CCC(=O)N2CCC(c3cc[nH]n3)CC2)CC1 [Example 91, 1-[(E)-3-(3,4-Dichloro-phenyl)-acryloyl]-4-{3-oxo-3-[4-(1H-pyrazol-3-yl)-piperidin-1-yl]-propyl}-[1,4]diazepan-5-one] | 146 nM |
| C[C@H]1C(=O)N(CCC(=O)N2CCC3(CC3)[C@H](O)C2)CCN1C(=O)Nc1ccc(Cl)c(Cl)c1 [Example 15, (S)-4-[3-((S)-4-Hydroxy-6-aza-spiro[2.5]oct-6-yl)-3-oxo-propyl]-2-methyl-3-oxo-piperazine-1-carboxylic acid (3,4-dichloro-phenyl)-amide] | 237 nM |
| C[C@H]1C(=O)N(CCCC(=O)N2CCC3(CC2)CNC(=O)O3)CCN1C(=O)Nc1cccc(Cl)c1 [Example 107, (S)-2-Methyl-3-oxo-4-[4-oxo-4-(2-oxo-1-oxa-3,8-diaza-spiro[4.5]dec-8-yl)-butyl]-piperazine-1-carboxylic acid (3-chloro-phenyl)-amide] | 4870 nM |
| C[C@H]1C(=O)N(CCCC(=O)N2CCC3(CC3)[C@H](O)C2)CCN1C(=O)Nc1ccc(Cl)c(Cl)c1 [Example 25, (S)-4-[4-((S)-4-Hydroxy-6-aza-spiro[2.5]oct-6-yl)-4-oxo-butyl]-2-methyl-3-oxo-piperazine-1-carboxylic acid (3,4-dichloro-phenyl)-amide] | 3.6 nM |
| C[C@H]1C(=O)N(CCC(F)C(=O)N2CCC3(CC3)[C@H](O)C2)CCN1C(=O)Nc1ccc(C(F)(F)F)c(Cl)c1 (single isomer, unassigned) [Example 137, (S)-4-[(R or S)-3-fluoro-4-((S)-4-hydroxy-6-aza-spiro[2.5]oct-6-yl)-4-oxo-butyl]-2-methyl-3-oxo-piperazine-1-carboxylic acid (3-chloro-4-trifluoromethyl-phenyl)-amide] | 10.5 nM |
| COC(=O)[C@H](CCC(=O)N1CCC2(CC2)[C@H](O)C1)N1CCN(C(=O)Nc2ccc(OC(F)(F)F)c(Cl)c2)[C@@H](C)C1=O [Example 54, (S)-2-[(S)-4-(3-Chloro-4-trifluoromethoxy-phenylcarbamoyl)-3-methyl-2-oxo-piperazin-1-yl]-5-((S)-4-hydroxy-6-aza-spiro[2.5]oct-6-yl)-5-oxo-pentanoic acid methyl ester] | 216 nM |
| C[C@H]1C(=O)N(CCCC(=O)N2CCC3(CC3)[C@H](O)C2)CCN1C(=O)Nc1ccc(OC(F)(F)F)cc1 [Example 30, (S)-4-[4-((S)-4-Hydroxy-6-aza-spiro[2.5]oct-6-yl)-4-oxo-butyl]-2-methyl-3-oxo-piperazine-1-carboxylic acid (4-trifluoromethoxy-phenyl)-amide] | 20.4 nM |
| C[C@H]1C(=O)N(CCC(=O)N2CCC(C)(O)CC2)CCN1C(=O)Nc1ccc(Cl)c(Cl)c1 [Example 18, (S)-4-[3-(4-Hydroxy-4-methyl-piperidin-1-yl)-3-oxo-propyl]-2-methyl-3-oxo-piperazine-1-carboxylic acid (3,4-dichloro-phenyl)-amide] | 1040 nM |
| C[C@H]1C(=O)N(CCCC(=O)N2CCC3(CC3)[C@H](O)C2)[C@H](C(N)=O)CN1C(=O)Nc1ccc(C(F)(F)F)c(C(F)(F)F)c1 [Example 149, (3S,6S)-4-[4-((S)-4-Hydroxy-6-aza-spiro[2.5]oct-6-yl)-4-oxo-butyl]-6-methyl-5-oxo-piperazine-1,3-dicarboxylic acid 3-amide 1-[(3,4-bis-trifluoromethyl-phenyl)-amide]] | 2.2 nM |
| O=C(/C=C/c1ccc(Cl)c(Cl)c1)N1CCC(=O)N(C(CCO)C(=O)N2CCCC2)CC1 (racemic) [Example 5, rac-(1-[(E)-3-(3,4-Dichloro-phenyl)-acryloyl]-4-[3-hydroxy-1-(pyrrolidine-1-carbonyl)-propyl]-[1,4]diazepan-5-one)] | 583 nM |
| COCC(CC(=O)N1CCC2(CC2)[C@H](O)C1)N1CCN(C(=O)/C=C/c2cccc(Cl)c2)CCC1=O (stereo partly drawn) [Example 13, 1-[(E)-3-(3-Chloro-phenyl)-acryloyl]-4-[(R,S)-3-((S)-4-hydroxy-6-aza-spiro[2.5]oct-6-yl)-1-methoxymethyl-3-oxo-propyl]-[1,4]diazepan-5-one] | 771 nM |
| C[C@H]1C(=O)N(CCC(O)C(=O)N2CCC3(CC3)[C@H](O)C2)CCN1C(=O)Nc1ccc(C(F)(F)F)c(Cl)c1 (stereo partly drawn) [Example 133, (S)-4-[(R,S)-3-Hydroxy-4-((S)-4-hydroxy-6-aza-spiro[2.5]oct-6-yl)-4-oxo-butyl]-2-methyl-3-oxo-piperazine-1-carboxylic acid (3-chloro-4-trifluoromethyl-phenyl)-amide] | 134 nM |
| (S)-4-[4-((S)-4-Hydroxy-6-aza-spiro[2.5]oct-6-yl)-4-oxo-butyl]-2-methyl-3-oxo-piperazine-1-carboxylic acid (3-chloro-phenyl)-amide [Example 39] | 965 nM |
| C[C@H]1C(=O)N(C[C@H](O)CC(=O)N2CCC3(CC3)[C@H](O)C2)CCN1C(=O)Nc1ccc(C(F)(F)F)c(C(F)(F)F)c1 [Example 49, (S)-4-[(R)-2-hydroxy-4-((S)-4-hydroxy-6-aza-spiro[2.5]oct-6-yl)-4-oxo-butyl]-2-methyl-3-oxo-piperazine-1-carboxylic acid (3,4-bis-trifluoromethyl-phenyl)-amide] | 5.8 nM |
| O=C(/C=C/c1ccc(Cl)c(Cl)c1)N1CCC(=O)N(CCC(=O)N2CCC(N3CCNC3=O)CC2)CC1 [Example 92, 1-[(E)-3-(3,4-Dichloro-phenyl)-acryloyl]-4-{3-oxo-3-[4-(2-oxo-imidazolidin-1-yl)-piperidin-1-yl]-propyl}-[1,4]diazepan-5-one] | 952 nM |
| CN(C)C(=O)[C@@H](CCO)N1CCN(C(=O)/C=C/c2cccc(Cl)c2)CCC1=O [Example 14, (R)-2-{4-[(E)-3-(3-Chloro-phenyl)-acryloyl]-7-oxo-[1,4]diazepan-1-yl}-4-hydroxy-N,N-dimethyl-butyramide] | 907 nM |
| C[C@H]1C(=O)N(CCCC(=O)N2CCC3(CC3)[C@H](O)C2)CCN1C(=O)Nc1cccc(Cl)c1 [Example 26, (S)-4-[4-((S)-4-Hydroxy-6-aza-spiro[2.5]oct-6-yl)-4-oxo-butyl]-2-methyl-3-oxo-piperazine-1-carboxylic acid (3-chloro-phenyl)-amide] | 18.1 nM |
| O=C(/C=C/c1ccc(Cl)c(Cl)c1)N1CCC(=O)N(CCC(=O)N2CCCC(CO)C2)CC1 (racemic) [Example 68, (rac)-1-[(E)-3-(3,4-Dichloro-phenyl)-acryloyl]-4-[3-(3-hydroxymethyl-piperidin-1-yl)-3-oxo-propyl]-[1,4]diazepan-5-one] | 758 nM |
| C[C@H]1C(=O)N(CCC(=O)N2CC[C@H](F)[C@@H](O)C2)CCN1C(=O)Nc1ccc(Cl)c(Cl)c1 (mixture of isomers) [Example 23, (S)-4-[3-((3SR,4SR)-4-Fluoro-3-hydroxy-piperidin-1-yl)-3-oxo-propyl]-2-methyl-3-oxo-piperazine-1-carboxylic acid (3,4-dichloro-phenyl)-amide] | 3860 nM |
| COC(=O)C(CC(=O)N(C)C)N1CCN(C(=O)/C=C/c2ccc(Cl)c(Cl)c2)CCC1=O (racemic) [Example 8, rac-(2-{4-[(E)-3-(3,4-Dichloro-phenyl)-acryloyl]-7-oxo-[1,4]diazepan-1-yl}-N,N-dimethyl-succinamic acid methyl ester)] | 863 nM |
| COC(=O)C(CC(=O)N1CCC2(CC2)[C@H](O)C1)N1CCN(C(=O)/C=C/c2cccc(Cl)c2)CCC1=O (some centres unmarked) [Example 10] | 708 nM |
| C[C@H]1C(=O)N([C@H](CO)CCC(=O)N2CCC3(CC3)[C@H](O)C2)CCN1C(=O)N(C)c1ccc(OC(F)(F)F)c(Cl)c1 [Example 57, (S)-4-[(S)-4-((S)-4-Hydroxy-6-aza-spiro[2.5]oct-6-yl)-1-hydroxymethyl-4-oxo-butyl]-2-methyl-3-oxo-piperazine-1-carboxylic acid (3-chloro-4-trifluoromethoxy-phenyl)-methyl-amide] | 2570 nM |
